# Measurements taken from patent US10219528B2 (Zinpro Corporation, priority 2016, dated 2019).
# Experiments:
# [1] = Solubility test of folate precipitates suspended in water at pH 7.0, filtered, insoluble solid weighed; assay type: physicochemical
# Excerpt: In the parent application is was noticed that when soluble metal salts were mixed with folic acid there would be a precipitate forming after the addition of the metal salt. This precipitate was isolated and its solubility measured. According to the following procedure: The precipitates were suspended in water and the pH was adjusted to 7.0 with dilute HCl. […] The solids were dried and weighed to determine the mass of insoluble product. Very similar molar amounts of folic acid are used in this procedure.
# [2] = Sheep serum folic acid concentrations after feeding test articles
# Excerpt: The animals were separated into groups and housed in a barn with access to a pasture. The dosing regime was as follows. […] The sheep were fed the test feeds for fourteen (14) days.
# Example 22 is a sheep study using the protocol of Example 20 but with the Mn and iron mixtures of Example 5 and 7, respectively. […] In this test the ewes were fed the concentrate metal folate mixture dried without any carrier but mixed on ground corn for feeding.
# The liquid mixtures were then sprayed directly on ground corn.
# [3] = suspended in water at pH 7.0, stirred, filtered, solid dried and weighed
compound,measurement,setting,value
Iron folate,Insoluble Mass,"[1]; suspended in 100 mL water, pH adjusted to 7.0, stirred, filtered, solid dried and weighed, about 3 g folate equivalents (6.8 mmols)",3.74 g
same,Insoluble %,[1]; [3],96%
same,Insoluble %,"[1]; suspended in water at pH 7.0, stirred, filtered, solid dried and weighed, listed as Iron folate",96%
Zinc folate,Insoluble %,[1]; [3],99%
same,Insoluble %,"[1]; suspended in water at pH 7.0, stirred, filtered, solid dried and weighed, listed as Zinc folate",99%
Zinc Folate Mixture [Example 1],serum folic acid concentrations,"[2]; 30 mg folic acid equivalent per head per day mixed with ground corn, 14 days, pre vs post treatment (FIGS. 1-4), mean or median",increased the greatest
same,blood serum levels of folic acid compared to folic acid alone,[2]; comparison with folic acid alone,performed better than folic acid alone
"Nc1nc2ncc(CNc3ccc(C(=O)N[C@@H](CCC(=O)O)C(=O)O)cc3)nc2c(=O)[nH]1 [Folic Acid, folic acid, reference compound]",Insoluble %,"[1]; 15 min, pH 7",0.33%
same,solubility at pH of 7,[1]; pH 7,soluble
